Measured values as given in ChEMBL document CHEMBL1145625, “QSAR study of mosquito repellents from terpenoid with a six-member-ring” (2008).

Tested on: Culex pipiens
Assay: Mosquito repellent activity in white mouse assessed as ratio of number of biting mosquito in treated to untreated control at 1.5 hrs
Format: functional

SMILES	Ratio
CC1(C)C2CC=C(CCO)C1C2 (stereo not given) [Nopol]	69
CC(=O)OCCC1C2CCC(C2)C1(C)C (stereo not given)	53
CC1=CCC(C(C)(C)O)CC1OC=O (stereo not given)	90
CCC(=O)OCCC1=CCC2CC1C2(C)C (stereo not given)	64.4
CC1(C)C2CC3OC3(C)C1C2 (stereo not given)	37.8
CC(=O)OC1CC(C(C)(C)O)CC=C1C (stereo not given)	81
CCC(CCC1C2CCC(C2)C1(C)C)C(C)OC(C)=O (stereo not given)	51.5
CCOCCC1=CCC2CC1C2(C)C (stereo not given)	62.2
CC(=O)OC1CC(C)CCC1C(C)C (stereo not given)	38.7
CC(=O)OCCC1=CCC2CC1C2(C)C (stereo not given)	60.8
C=C(C)C1CC=C(CCOC(C)=O)CC1 (stereo not given)	58.5
C=C(C)C1CC=C(CCOC(=O)CC)CC1 (stereo not given)	63.6
COCCC1=CCC2CC1C2(C)C (stereo not given)	52.1
CCCC(CCCC1C2CCC(C2)C1(C)C)OC(C)=O (stereo not given)	51.7
CCC(=O)OC1CC(C)CCC1C(C)C (stereo not given)	40.5
CC1CCC(C(C)C)C(O)C1 (stereo not given) [MENTHOL]	53
CC1(C)C2CC=C(CCOC=O)C1C2 (stereo not given)	56.1
CCC(CCCC1C2CCC(C2)C1(C)C)OC(C)=O (stereo not given)	50.2
CCCOCCC1=CCC2CC1C2(C)C (stereo not given)	72.5
CCC(=O)OCCC1C2CCC(C2)C1(C)C (stereo not given)	56.8
